Measurements taken from patent US10858339B2, “Aryl cyclopropyl-amino-isoquinolinyl amide compounds” (priority 2017, dated 2020).
pKi: −log10 of the molar value. Counter-ions that a name gives are not always drawn.

Experiments:
[1] = biological target: Rho Kinase; test: ROCK kinase inhibition assay (Rho Kinase Activity, isoform not given); assay type: biochemical; conditions: Table 15, mostly given as ranges
Procedure: All compounds were initially prepared as 10 mM stocks in anhydrous dimethylsulfoxide (DMSO). A 20 μl aliquot of the 10 mM solutions was transferred to individual wells in column 1 of a 96-well polypropylene microtiter plate (Corning #3363) and diluted with DMSO to give a final compound concentration of 4 mM. Test compounds were then serially diluted 1:5 in DMSO for an 11-point concentration response and further diluted in the assay buffer bringing all compound concentrations to a final range of 100 μM to […] in 2.5% DMSO. The assay was performed in white 96-well, flat-bottom, half-area, non-binding assay plate (Corning #3642) in assay buffer consisting of 20 mM HEPES (pH 7.5), 10 mM MgCl2*6H2O, 100 μM sodium orthovanadate, 0.05% CHAPS and 0.1% bovine serum albumin. A 10 μL aliquot of compound from each well of the intermediate dilution plate and 20 μL of a 2× substrate/enzyme solution containing acceptor substrate (800 nM RSK2 peptide […] (SEQ ID NO: 1)), ROCK2 enzyme (10 nM), or ROCK1 enzyme, and 1,4-Dithiothreitol (DTT, 2 uM) were added to all wells. The reaction was initiated by the addition of 10 μL of 4× stock solution ATP (2 μM). Reactions were thoroughly mixed manually, covered and allowed to incubate at room temperature for 75 min. Protein kinase activity was quantitated using Promega's KINASE-GLO™ luminescent Kinase Assay Kit according to the manufacturer's directions. ATP concentrations remaining in Test wells following the termination of the enzymatic reaction were compared against control wells containing equivalent amounts of DMSO containing no inhibitor (CTRL). […] Percent of Control (POC) values were determined for each concentration of compound tested according to the equation: POC=((Test well value−BKG)/(CTRL−BKG))*100
IC50 values were converted to K; […]

[2] = biological target: JAK2 (Homo sapiens, UniProt O60674); test: JAK kinase assay, JAK2 enzyme; assay type: biochemical; conditions: Table 15; in brackets in the activity cell; read-out: JAK2 activity;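 also: JAK2 kinase reaction run 75 min at room temperature, leftover ATP read by Kinase-Glo luminescence, 11-point dilution series in 2.5% DMSO, percent of inhibitor-free DMSO control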
Chain of JAK2 (O60674 whole entry, species assumed): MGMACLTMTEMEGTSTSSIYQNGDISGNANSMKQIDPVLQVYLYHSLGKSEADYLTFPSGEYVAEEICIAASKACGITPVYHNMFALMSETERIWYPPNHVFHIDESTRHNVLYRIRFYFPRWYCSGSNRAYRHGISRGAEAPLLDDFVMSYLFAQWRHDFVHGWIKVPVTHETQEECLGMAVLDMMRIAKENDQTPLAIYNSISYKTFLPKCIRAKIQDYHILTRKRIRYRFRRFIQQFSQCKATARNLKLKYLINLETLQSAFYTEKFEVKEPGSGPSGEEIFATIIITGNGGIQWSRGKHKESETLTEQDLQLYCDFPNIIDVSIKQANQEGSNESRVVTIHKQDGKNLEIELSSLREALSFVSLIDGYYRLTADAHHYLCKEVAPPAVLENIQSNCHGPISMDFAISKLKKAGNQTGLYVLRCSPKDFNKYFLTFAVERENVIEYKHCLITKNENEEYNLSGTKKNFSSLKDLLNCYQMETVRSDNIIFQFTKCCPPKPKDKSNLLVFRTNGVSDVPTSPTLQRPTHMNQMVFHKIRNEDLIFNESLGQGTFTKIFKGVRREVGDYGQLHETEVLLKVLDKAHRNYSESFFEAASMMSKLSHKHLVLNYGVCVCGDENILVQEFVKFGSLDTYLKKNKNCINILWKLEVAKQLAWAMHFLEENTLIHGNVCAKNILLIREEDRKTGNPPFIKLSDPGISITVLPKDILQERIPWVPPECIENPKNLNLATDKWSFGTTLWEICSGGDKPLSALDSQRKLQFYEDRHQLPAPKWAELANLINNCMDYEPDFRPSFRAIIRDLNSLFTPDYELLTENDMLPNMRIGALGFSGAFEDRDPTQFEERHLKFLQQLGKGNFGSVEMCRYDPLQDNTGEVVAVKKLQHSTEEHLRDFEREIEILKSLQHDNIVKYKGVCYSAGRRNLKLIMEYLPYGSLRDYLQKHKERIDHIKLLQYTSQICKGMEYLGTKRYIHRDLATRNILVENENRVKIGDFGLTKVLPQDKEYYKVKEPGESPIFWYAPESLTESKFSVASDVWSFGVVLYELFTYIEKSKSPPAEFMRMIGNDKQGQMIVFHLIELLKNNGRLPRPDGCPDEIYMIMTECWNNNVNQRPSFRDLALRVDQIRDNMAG

Q: How did the pKi [1] turn out when O=C(Nc1ccc2cnccc2c1)C1CC1c1ccccc1 (stereo not drawn) was run?
A: 7.89 to 8.30

Q: O=C(Nc1ccc2cnccc2c1)C1CC1c1ccc(COCc2ccccc2)cc1 (stereo not drawn) was tested. Which pKi [1] did it give?
A: 6.22 to 6.46

Q: How did the pKi [1] turn out when O=C1CC(c2ccccc2)CN1c1ccc2cnccc2c1 (stereo not drawn) was run?
A: 5.87 to 6.19

Q: Which results are given for O=C(OCc1ccccn1)c1ccc([C@@H]2C[C@H]2C(=O)Nc2ccc3cnccc3c2)cc1 (racemic) [Example E99, trans-pyridin-2-ylmethyl 4-(2-(isoquinolin-6-ylcarbamoyl)cyclopropyl) benzoate]?
A: pKi [1]: 8.22 to 9.30; pKi [2]: 6.22 to 6.60

Q: O=Cc1ccc([C@@H]2C[C@H]2C(=O)Nc2ccc3cnccc3c2)cc1 (racemic) [Example E159, trans-2-(4-formylphenyl)-N-(isoquinolin-6-yl)cyclopropane-1-carboxamide] was tested. Which pKi [1] did it give?
A: 7.30 to 7.70

Q: And the pKi [2]?
A: 6.57

Q: With O=C(Nc1ccc2cnccc2c1)[C@@H]1C[C@H]1c1ccc(S(=O)(=O)N2CCNCC2)cc1 (racemic) [Example E248H, trans)-N-(isoquinolin-6-yl)-2-(4-(piperazin-1-ylsulfonyl)phenyl) cyclopropane-1-carboxamide dihydrochloride] as the compound, how does the pKi [1] read?
A: 7.30 to 7.52

Q: O=C(NCc1cccnc1)c1ccc([C@@H]2C[C@H]2C(=O)Nc2ccc3cnccc3c2)cc1 (relative stereo) [Example E8, trans-4-(2-(isoquinolin-6-ylcarbamoyl)cyclopropyl)-N-(pyridin-3-ylmethyl)benzamide] was tested. Which pKi [1] did it give?
A: 8.00 to 9.00

Q: What about the pKi [2] of the same compound?
A: 6.70

Q: How did the pKi [1] turn out when O=C(OCc1ccccc1)c1ccc([C@@H]2C[C@H]2C(=O)Nc2ccc3cnccc3c2)cc1 (relative stereo) [Example E96, trans-benzyl 4-(2-(isoquinolin-6-ylcarbamoyl)cyclopropyl)benzoate] was run?
A: 6.89 to 7.70

Q: And the pKi [2]?
A: 5.30 to 5.80

Q: How did the pKi [1] turn out when O=C(NCc1cccc(F)c1)OCc1ccc([C@@H]2C[C@H]2C(=O)Nc2ccc3cnccc3c2)cc1 (relative stereo) [Example E142, trans-4-(2-(isoquinolin-6-ylcarbamoyl)cyclopropyl)benzyl (3-fluorobenzyl)carbamate] was run?
A: 6.10 to 7.52

Q: With O=C(Nc1ccc2cnccc2c1)[C@@H]1C[C@H]1c1ccc(CNCc2cccnc2)cc1 (relative stereo) [Example E160, trans-N-(isoquinolin-6-yl)-2-(4-(((pyridin-3-ylmethyl)amino)methyl)phenyl)cyclopropane-1-carboxamide] as the compound, how does the pKi [1] read?
A: 6.10 to 6.60

Q: O=C(OCc1ccccc1)c1cccc([C@@H]2C[C@H]2C(=O)Nc2ccc3cnccc3c2)c1 (relative stereo) [Example E170, trans-benzyl 3-(2-(isoquinolin-6-ylcarbamoyl)cyclopropyl)benzoate] was tested. Which pKi [1] did it give?
A: 5.90 to 6.19

Q: With CC(C)(C)OC(=O)c1ccc([C@@H]2C[C@H]2C(=O)Nc2ccc3cnccc3c2)c(F)c1 (relative stereo) [Example E191, trans-tert-butyl 3-fluoro-4-(2-(isoquinolin-6-ylcarbamoyl)cyclopropyl)benzoate] as the compound, how does the pKi [1] read?
A: 6.73 to 6.90

Q: And the pKi [2]?
A: 5.52

Q: Which results are given for COc1ccc(CNC(=O)c2ccc([C@@H]3C[C@H]3C(=O)Nc3ccc4cnccc4c3)c(F)c2)cc1 (relative stereo) [Example E193, trans-3-fluoro-4-(2-(isoquinolin-6-ylcarbamoyl)cyclopropyl)-N-(4-methoxybenzyl)benzamide]?
A: pKi [1]: 8.10 to 8.22; pKi [2]: 6.96

Q: With O=C(Nc1ccc2cnccc2c1)[C@@H]1C[C@H]1c1ccc(OCc2ccccc2)cc1 (relative stereo) [Example E210, trans-2-(4-(benzyloxy)phenyl)-N-(isoquinolin-6-yl)cyclopropane-1-carboxamide] as the compound, how does the pKi [1] read?
A: 6.52 to 7.22

Q: How did the pKi [1] turn out when O=C(Nc1ccc2cnccc2c1)[C@@H]1C[C@H]1c1ccc(S(=O)(=O)Nc2ccccc2)cc1 (relative stereo) [Example E247A, trans-N-(isoquinolin-6-yl)-2-(4-(N-phenylsulfamoyl)phenyl) cyclopropane-1-carboxamide] was run?
A: 6.46 to 7.15

Q: O=C(Nc1ccc2cnccc2c1)[C@@H]1C[C@H]1c1ccc(S(=O)(=O)NCC2CCNCC2)cc1 (relative stereo) [Example E248D, trans-N-(isoquinolin-6-yl)-2-(4-(N-(piperidin-4-ylmethyl)sulfamoyl)phenyl) cyclopropane-1-carboxamide dihydrochloride] was tested. Which pKi [1] did it give?
A: 8.05 to 8.30

Q: With O=C(Nc1ccc2cncc(Cl)c2c1)[C@@H]1C[C@H]1c1ccc(S(=O)(=O)NC[C@H]2CCCNC2)cc1 [E250E*] as the compound, how does the pKi [1] read?
A: 7.96 to 8.05

Q: With O=C(NCc1ccncc1)c1ccc(C2CC2C(=O)Nc2ccc3cnccc3c2)cc1 (stereo not drawn) [Example E10] as the compound, how does the pKi [1] read?
A: 8.15 to 9.00

Q: How did the pKi [1] turn out when O=C(NCc1ccc(Cl)cc1)c1ccc(C2CC2C(=O)Nc2ccc3cnccc3c2)cc1 (stereo not drawn) [Example E14] was run?
A: 7.37 to 8.52

Q: O=C(NCc1ccc(OC(F)(F)F)cc1)c1ccc(C2CC2C(=O)Nc2ccc3cnccc3c2)cc1 (stereo not drawn) [Example E15.1] was tested. Which pKi [1] did it give?
A: 6.96 to 7.19

Q: With COc1ccc(CNC(=O)c2ccc(C3CC3C(=O)Nc3ccc4cnccc4c3)cc2)cc1 (stereo not drawn) [Example E15] as the compound, how does the pKi [1] read?
A: 8.30 to 9.00

Q: With O=C(NCc1cccs1)c1ccc(C2CC2C(=O)Nc2ccc3cnccc3c2)cc1 (stereo not drawn) [Example E17] as the compound, how does the pKi [1] read?
A: 8.40 to 8.70

Q: How did the pKi [1] turn out when CC(C)(C)OC(=O)N1CCCC(CNC(=O)c2ccc(C3CC3C(=O)Nc3ccc4cnccc4c3)cc2)C1 (stereo not drawn) [Example E30.1] was run?
A: 7.43 to 8.00

Q: With O=C(NCC1CCCNC1)c1ccc(C2CC2C(=O)Nc2ccc3cnccc3c2)cc1 (stereo not drawn) [Example E30.2] as the compound, how does the pKi [1] read?
A: 8.10 to 9.00

Q: Cc1nccc2cc(NC(=O)C3CC3c3ccc(C(=O)NCc4cccnc4)cc3)ccc12 (stereo not drawn) [Example E36] was tested. Which pKi [1] did it give?
A: 6.70 to 7.12

Q: How did the pKi [1] turn out when O=C(Nc1ccc(Oc2ccccc2)cc1)c1ccc(C2CC2C(=O)Nc2ccc3cnccc3c2)cc1 (stereo not drawn) [Example E39.1] was run?
A: 6.96 to 7.12

Q: How did the pKi [1] turn out when O=C(NCc1ccccc1)c1ccc([C@@H]2C[C@H]2C(=O)Nc2ccc3cnccc3c2F)cc1 [Example E115.1] was run?
A: 9.00 to 10.00

Q: With CC(C)(C)OC(=O)N1CCC(CNCc2ccc(C3CC3C(=O)Nc3ccc4cnccc4c3)cc2)CC1 (stereo not drawn) [Example E162.1] as the compound, how does the pKi [1] read?
A: 6.22 to 6.70

Q: O=C(Nc1ccc2cnccc2c1)C1CC1c1ccc(CNCC2CCNCC2)cc1 (stereo not drawn) [Example E162.2] was tested. Which pKi [1] did it give?
A: 6.52 to 6.90

Q: How did the pKi [1] turn out when O=C(NCc1ccncc1)c1cccc(C2CC2C(=O)Nc2ccc3cnccc3c2)c1 (stereo not drawn) [Example E174] was run?
A: 9.52 to 9.82

Q: With O=C(NCc1ccc2ccncc2c1)c1ccc(C2CC2C(=O)Nc2ccc3cnccc3c2)cc1F (stereo not drawn) [Example E195.1] as the compound, how does the pKi [1] read?
A: 8.15 to 8.40

Q: CC(C)(C)OC(=O)N1CCC(CNC(=O)c2ccc(C3CC3C(=O)Nc3ccc4cnccc4c3)cc2F)CC1 (stereo not drawn) [Example E195.2] was tested. Which pKi [1] did it give?
A: 9.00 to 9.40

Q: How did the pKi [1] turn out when O=C(NCc1ccc(Cl)cc1)c1ccc(C2CC2C(=O)Nc2ccc3cnccc3c2)c(F)c1 (stereo not drawn) [Example E195] was run?
A: 7.00 to 7.15

Q: With C[C@@H]1OC(c2ccc(C3CC(=O)N(c4ccc5cnccc5c4)C3)cc2)O[C@H]1C (stereo partly drawn) [Example E223, 4-(4-((4S,5S)-4,5-dimethyl-1,3-dioxolan-2-yl)phenyl)-1-(isoquinolin-6-yl)pyrrolidin-2-one] as the compound, how does the pKi [1] read?
A: 4.82 to 5.10

Q: With O=Cc1ccc(C2CC(=O)N(c3ccc4cnccc4c3)C2)cc1 (stereo not drawn) [Example E224, 4-(1-(isoquinolin-6-yl)-5-oxopyrrolidin-3-yl)benzaldehyde] as the compound, how does the pKi [1] read?
A: 5.17 to 5.59

Q: O=C1CC(c2ccc(CNCc3cccnc3)cc2)CN1c1ccc2cnccc2c1 (stereo not drawn) [Example E225, 1-(isoquinolin-6-yl)-4-(4-(((pyridin-3-ylmethyl)amino)methyl)phenyl)pyrrolidin-2-one] was tested. Which pKi [1] did it give?
A: 5.66 to 5.87

Q: How did the pKi [1] turn out when O=C1CC(c2ccc(CNCc3ccccn3)cc2)CN1c1ccc2cnccc2c1 (stereo not drawn) [Example E226] was run?
A: 5.03 to 5.72

Q: How did the pKi [1] turn out when CC(C)(C)OC(=O)N1CCC(CNCc2ccc(C3CC(=O)N(c4ccc5cnccc5c4)C3)cc2)CC1 (stereo not drawn) [Example E227.1] was run?
A: 5.40 to 5.89

Q: O=C1CC(c2ccc(CNCC3CCNCC3)cc2)CN1c1ccc2cnccc2c1 (stereo not drawn) [Example E227.2] was tested. Which pKi [1] did it give?
A: 6.22 to 6.52

Q: CC(C)(C)OC(=O)c1ccc(C2CC(=O)N(c3ccc4cnccc4c3)C2)cc1 (stereo not drawn) [Example E230, tert-butyl 4-(1-(isoquinolin-6-yl)-5-oxopyrrolidin-3-yl)benzoate] was tested. Which pKi [1] did it give?
A: 4.60 to 4.85

Q: With CC(C)(C)OC(=O)c1ccc(C2CC(=O)N(c3ccc4cnccc4c3)C2)cc1F (stereo not drawn) [Example E230.1] as the compound, how does the pKi [1] read?
A: 5.03

Q: With O=C(O)c1ccc(C2CC(=O)N(c3ccc4cnccc4c3)C2)cc1 (stereo not drawn) [Example E231, 4-(1-(isoquinolin-6-yl)-5-oxopyrrolidin-3-yl)benzoic acid] as the compound, how does the pKi [1] read?
A: 4.17 to 4.47

Q: O=C(NCc1cccnc1)c1ccc(C2CC(=O)N(c3ccc4cnccc4c3)C2)cc1 (stereo not drawn) [Example E232, 4-(1-(isoquinolin-6-yl)-5-oxopyrrolidin-3-yl)-N-(pyridin-3-ylmethyl)benzamide] was tested. Which pKi [1] did it give?
A: 4.80 to 5.19

Q: O=C(NCC1CCNCC1)c1ccc(C2CC(=O)N(c3ccc4cnccc4c3)C2)cc1 (stereo not drawn) [Example E234.2] was tested. Which pKi [1] did it give?
A: 5.90 to 6.00

Q: With O=C(Nc1ccc2cnccc2c1)[C@@H]1C[C@H]1c1ccc(S(=O)(=O)NC[C@@H]2CCCNC2)cc1 [Example E248F, trans-N-(isoquinolin-6-yl)-2-(4-(N—(((R)-piperidin-3-yl)methyl)sulfamoyl)phenyl)-cyclopropane-1-carboxamide dihydrochloride] as the compound, how does the pKi [1] read?
A: 8.30 to 8.52
